Measured values: patent US9618524B2, “Method, composition, isolation and identification of a plaque particle and related biomarker” (Plaxgen Inc., priority 2012, dated 2017)

Tests used:
Assay in all cases: Mass spectroscopy proteomics, semi-quantitative binding affinity of serum proteins (plaqueproteome, Table 2)
Conditions in all cases: higher number = stronger affinity
Tau plaque particles = test system: Tau plaque particles; set-up: species or system human
Summary of the method: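 Synthetic Tau-74 and Tau-275 peptides (1 mg/mL PBS, 37° C, 2 h) aggregated; 30 μg aggregates incubated with 50% serum/plasma 1 h at 37° C, stained with Thioflavin S, and plaque particles sorted by flow cytometry. Bound proteins trypsin-digested and identified by MS/MS against human UniProt.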

[1] = target: T1, alpha-synuclein plaque particles (Homo sapiens, UniProt P37840)
T1 construct: 140 amino acids polypeptide
Summary of the method: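 AD-subject plasma or serum (800 μL of 50%) mixed with 30 μg preformed alpha-synuclein aggregates for 1 h at 37 °C; Thioflavin S-positive particles isolated by flow sorting. After reduction, acrylamide alkylation and overnight tryptic digestion, serum proteins identified by MS/MS with Sequest and Scaffold.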

[2] = target: T2, Abeta-42 plaque particles (Homo sapiens, UniProt P05067)
T2 construct: Abeta 1-42
Summary of the method: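 AD patient serum or plasma (50% in PBS) was incubated with Abeta-42 aggregates (30 μg) for 1 h at 37 °C, then stained with Thioflavin S for 30 min. Labeled particles were FACS-sorted, trypsin/Lys-C digested overnight and analyzed by MS/MS. Sequest searched human UniProt; Scaffold/Protein Prophet validated the identifications.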

[3] = test system: High Density cholesterol (Chl Large) plaque particles; set-up: species or system human
Summary of the method: (§1)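 Proteins bound to flow-sorted cholesterol plaque particles (large/high-density or small/low-density gates) were identified by LC-MS/MS after trypsin digestion. Particles were formed from 50% atherosclerotic serum or plasma with 30 μg cholesterol aggregates, 1 h, 37 °C. Sequest human database search; Scaffold validation.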

[4] = test system: Low density cholesterol (Chl small) plaque particles; set-up: species or system human
Summary of the method: as §1

Ig kappa chain V-III region POM
Semi-quantitative analysis of proteins binding to different plaque particles: Tau (Tau plaque particles): 2 | Semi-quantitative analysis of proteins binding to different plaque particles: Synuclein [1]: 0 | Semi-quantitative analysis of proteins binding to different plaque particles: Abeta-42 [2]: 0 | Semi-quantitative analysis of proteins binding to different plaque particles: Chl Large [3]: 1 | Semi-quantitative analysis of proteins binding to different plaque particles: Chl small [4]: 1

Ig kappa chain V-III region VG
Semi-quantitative analysis of proteins binding to different plaque particles: Tau (Tau plaque particles): 0 | Semi-quantitative analysis of proteins binding to different plaque particles: Synuclein [1]: 1 | Semi-quantitative analysis of proteins binding to different plaque particles: Abeta-42 [2]: 0 | Semi-quantitative analysis of proteins binding to different plaque particles: Chl Large [3]: 1 | Semi-quantitative analysis of proteins binding to different plaque particles: Chl small [4]: 0

Ig lambda chain V-IV region Hil
Semi-quantitative analysis of proteins binding to different plaque particles: Tau (Tau plaque particles): 1 | Semi-quantitative analysis of proteins binding to different plaque particles: Synuclein [1]: 0 | Semi-quantitative analysis of proteins binding to different plaque particles: Abeta-42 [2]: 0 | Semi-quantitative analysis of proteins binding to different plaque particles: Chl Large [3]: 0 | Semi-quantitative analysis of proteins binding to different plaque particles: Chl small [4]: 1

Ig lambda-2 chain C regions
Semi-quantitative analysis of proteins binding to different plaque particles: Tau (Tau plaque particles): 10 | Semi-quantitative analysis of proteins binding to different plaque particles: Synuclein [1]: 8 | Semi-quantitative analysis of proteins binding to different plaque particles: Abeta-42 [2]: 9 | Semi-quantitative analysis of proteins binding to different plaque particles: Chl Large [3]: 5 | Semi-quantitative analysis of proteins binding to different plaque particles: Chl small [4]: 7

Ig lambda-6 chain C region
Semi-quantitative analysis of proteins binding to different plaque particles: Tau (Tau plaque particles): 5 | Semi-quantitative analysis of proteins binding to different plaque particles: Synuclein [1]: 6 | Semi-quantitative analysis of proteins binding to different plaque particles: Abeta-42 [2]: 5 | Semi-quantitative analysis of proteins binding to different plaque particles: Chl Large [3]: 3 | Semi-quantitative analysis of proteins binding to different plaque particles: Chl small [4]: 3

Ig lambda-7 chain C region
Semi-quantitative analysis of proteins binding to different plaque particles: Tau (Tau plaque particles): 3 | Semi-quantitative analysis of proteins binding to different plaque particles: Synuclein [1]: 4 | Semi-quantitative analysis of proteins binding to different plaque particles: Abeta-42 [2]: 2 | Semi-quantitative analysis of proteins binding to different plaque particles: Chl Large [3]: 3 | Semi-quantitative analysis of proteins binding to different plaque particles: Chl small [4]: 2

Immunoglobulin J chain
Semi-quantitative analysis of proteins binding to different plaque particles: Tau (Tau plaque particles): 1 | Semi-quantitative analysis of proteins binding to different plaque particles: Synuclein [1]: 2 | Semi-quantitative analysis of proteins binding to different plaque particles: Abeta-42 [2]: 0 | Semi-quantitative analysis of proteins binding to different plaque particles: Chl Large [3]: 1 | Semi-quantitative analysis of proteins binding to different plaque particles: Chl small [4]: 1

Immunoglobulin lambda-like polypeptide 5
Semi-quantitative analysis of proteins binding to different plaque particles: Tau (Tau plaque particles): 11 | Semi-quantitative analysis of proteins binding to different plaque particles: Synuclein [1]: 8 | Semi-quantitative analysis of proteins binding to different plaque particles: Abeta-42 [2]: 9 | Semi-quantitative analysis of proteins binding to different plaque particles: Chl Large [3]: 5 | Semi-quantitative analysis of proteins binding to different plaque particles: Chl small [4]: 7

Isoform 2 of Annexin A2
Semi-quantitative analysis of proteins binding to different plaque particles: Tau (Tau plaque particles): 0 | Semi-quantitative analysis of proteins binding to different plaque particles: Synuclein [1]: 0 | Semi-quantitative analysis of proteins binding to different plaque particles: Abeta-42 [2]: 2 | Semi-quantitative analysis of proteins binding to different plaque particles: Chl Large [3]: 0 | Semi-quantitative analysis of proteins binding to different plaque particles: Chl small [4]: 0

Isoform 2 of Clusterin
Semi-quantitative analysis of proteins binding to different plaque particles: Tau (Tau plaque particles): 5 | Semi-quantitative analysis of proteins binding to different plaque particles: Synuclein [1]: 7 | Semi-quantitative analysis of proteins binding to different plaque particles: Abeta-42 [2]: 4 | Semi-quantitative analysis of proteins binding to different plaque particles: Chl Large [3]: 6 | Semi-quantitative analysis of proteins binding to different plaque particles: Chl small [4]: 4

Isoform 2 of Fibrinogen alpha chain
Semi-quantitative analysis of proteins binding to different plaque particles: Tau (Tau plaque particles): 1 | Semi-quantitative analysis of proteins binding to different plaque particles: Synuclein [1]: 0 | Semi-quantitative analysis of proteins binding to different plaque particles: Abeta-42 [2]: 0 | Semi-quantitative analysis of proteins binding to different plaque particles: Chl Large [3]: 0 | Semi-quantitative analysis of proteins binding to different plaque particles: Chl small [4]: 1

Isoform 2 of Protein SET
Semi-quantitative analysis of proteins binding to different plaque particles: Tau (Tau plaque particles): 0 | Semi-quantitative analysis of proteins binding to different plaque particles: Synuclein [1]: 0 | Semi-quantitative analysis of proteins binding to different plaque particles: Abeta-42 [2]: 4 | Semi-quantitative analysis of proteins binding to different plaque particles: Chl Large [3]: 0 | Semi-quantitative analysis of proteins binding to different plaque particles: Chl small [4]: 0

Isoform 3 of Fibronectin
Semi-quantitative analysis of proteins binding to different plaque particles: Tau (Tau plaque particles): 23 | Semi-quantitative analysis of proteins binding to different plaque particles: Synuclein [1]: 16 | Semi-quantitative analysis of proteins binding to different plaque particles: Abeta-42 [2]: 9 | Semi-quantitative analysis of proteins binding to different plaque particles: Chl Large [3]: 25 | Semi-quantitative analysis of proteins binding to different plaque particles: Chl small [4]: 19

Isoform MBP-1 of Alpha-enolase
Semi-quantitative analysis of proteins binding to different plaque particles: Tau (Tau plaque particles): 0 | Semi-quantitative analysis of proteins binding to different plaque particles: Synuclein [1]: 0 | Semi-quantitative analysis of proteins binding to different plaque particles: Abeta-42 [2]: 7 | Semi-quantitative analysis of proteins binding to different plaque particles: Chl Large [3]: 0 | Semi-quantitative analysis of proteins binding to different plaque particles: Chl small [4]: 0

Isoform Short of Heterogeneous nuclear ribonucleoprotein
Semi-quantitative analysis of proteins binding to different plaque particles: Tau (Tau plaque particles): 0 | Semi-quantitative analysis of proteins binding to different plaque particles: Synuclein [1]: 0 | Semi-quantitative analysis of proteins binding to different plaque particles: Abeta-42 [2]: 4 | Semi-quantitative analysis of proteins binding to different plaque particles: Chl Large [3]: 0 | Semi-quantitative analysis of proteins binding to different plaque particles: Chl small [4]: 0

Lumican
Semi-quantitative analysis of proteins binding to different plaque particles: Tau (Tau plaque particles): 0 | Semi-quantitative analysis of proteins binding to different plaque particles: Synuclein [1]: 0 | Semi-quantitative analysis of proteins binding to different plaque particles: Abeta-42 [2]: 0 | Semi-quantitative analysis of proteins binding to different plaque particles: Chl Large [3]: 4 | Semi-quantitative analysis of proteins binding to different plaque particles: Chl small [4]: 3

Lysozyme C
Semi-quantitative analysis of proteins binding to different plaque particles: Tau (Tau plaque particles): 0 | Semi-quantitative analysis of proteins binding to different plaque particles: Synuclein [1]: 0 | Semi-quantitative analysis of proteins binding to different plaque particles: Abeta-42 [2]: 4 | Semi-quantitative analysis of proteins binding to different plaque particles: Chl Large [3]: 0 | Semi-quantitative analysis of proteins binding to different plaque particles: Chl small [4]: 0

Myosin-1
Semi-quantitative analysis of proteins binding to different plaque particles: Tau (Tau plaque particles): 0 | Semi-quantitative analysis of proteins binding to different plaque particles: Synuclein [1]: 0 | Semi-quantitative analysis of proteins binding to different plaque particles: Abeta-42 [2]: 22 | Semi-quantitative analysis of proteins binding to different plaque particles: Chl Large [3]: 0 | Semi-quantitative analysis of proteins binding to different plaque particles: Chl small [4]: 0

Myosin-6
Semi-quantitative analysis of proteins binding to different plaque particles: Tau (Tau plaque particles): 0 | Semi-quantitative analysis of proteins binding to different plaque particles: Synuclein [1]: 0 | Semi-quantitative analysis of proteins binding to different plaque particles: Abeta-42 [2]: 17 | Semi-quantitative analysis of proteins binding to different plaque particles: Chl Large [3]: 0 | Semi-quantitative analysis of proteins binding to different plaque particles: Chl small [4]: 0

Myosin-13
Semi-quantitative analysis of proteins binding to different plaque particles: Tau (Tau plaque particles): 0 | Semi-quantitative analysis of proteins binding to different plaque particles: Synuclein [1]: 0 | Semi-quantitative analysis of proteins binding to different plaque particles: Abeta-42 [2]: 17 | Semi-quantitative analysis of proteins binding to different plaque particles: Chl Large [3]: 0 | Semi-quantitative analysis of proteins binding to different plaque particles: Chl small [4]: 0

Nucleoside diphosphate kinase A
Semi-quantitative analysis of proteins binding to different plaque particles: Tau (Tau plaque particles): 0 | Semi-quantitative analysis of proteins binding to different plaque particles: Synuclein [1]: 4 | Semi-quantitative analysis of proteins binding to different plaque particles: Abeta-42 [2]: 5 | Semi-quantitative analysis of proteins binding to different plaque particles: Chl Large [3]: 0 | Semi-quantitative analysis of proteins binding to different plaque particles: Chl small [4]: 0

POTE ankyrin domain family member E
Semi-quantitative analysis of proteins binding to different plaque particles: Tau (Tau plaque particles): 0 | Semi-quantitative analysis of proteins binding to different plaque particles: Synuclein [1]: 18 | Semi-quantitative analysis of proteins binding to different plaque particles: Abeta-42 [2]: 18 | Semi-quantitative analysis of proteins binding to different plaque particles: Chl Large [3]: 0 | Semi-quantitative analysis of proteins binding to different plaque particles: Chl small [4]: 0
